{"source": "paper PMC6511942", "about": "“Exploitation of Antibiotic Resistance as a Novel Drug Target: Development of a β-Lactamase-Activated Antibacterial Prodrug” (Journal of Medicinal Chemistry, 2019)", "key": {"[1]": {"system": "Ec12 (CTX-M-15, ciprofloxacin resistant)", "assay": "microbe, parasite or virus in culture", "type": "cell-based, E. coli"}, "[2]": {"system": "Ec16 (CTX-M-15, ciprofloxacin sensitive)", "type": "cell-based, E. coli", "conditions": "strain EC16, ciprofloxacin sensitive"}, "[3]": {"system": "Ec17 (CTX-M-15, ciprofloxacin sensitive)", "assay": "microbe, parasite or virus in culture", "type": "cell-based, E. coli"}, "CFT073 pKPC (KPC-3)": {"system": "CFT073 pKPC (KPC-3)", "assay": "microbe, parasite or virus in culture", "type": "cell-based, E. coli", "conditions": "Escherichia coli, read-out: MIC value pKPC"}, "CFT073 + pSU18 (pEMP)": {"system": "CFT073 + pSU18 (pEMP)", "assay": "microbe, parasite or virus in culture", "type": "cell-based, E. coli"}, "recombinant DNA gyrase": {"molecular_target": "T1, recombinant DNA gyrase (Escherichia coli, UniProt P0AES4+P0AES6)", "T1 construct": "purchased Inspiralis", "T1 sequence (P0AES4 whole entry, one chain of several)": "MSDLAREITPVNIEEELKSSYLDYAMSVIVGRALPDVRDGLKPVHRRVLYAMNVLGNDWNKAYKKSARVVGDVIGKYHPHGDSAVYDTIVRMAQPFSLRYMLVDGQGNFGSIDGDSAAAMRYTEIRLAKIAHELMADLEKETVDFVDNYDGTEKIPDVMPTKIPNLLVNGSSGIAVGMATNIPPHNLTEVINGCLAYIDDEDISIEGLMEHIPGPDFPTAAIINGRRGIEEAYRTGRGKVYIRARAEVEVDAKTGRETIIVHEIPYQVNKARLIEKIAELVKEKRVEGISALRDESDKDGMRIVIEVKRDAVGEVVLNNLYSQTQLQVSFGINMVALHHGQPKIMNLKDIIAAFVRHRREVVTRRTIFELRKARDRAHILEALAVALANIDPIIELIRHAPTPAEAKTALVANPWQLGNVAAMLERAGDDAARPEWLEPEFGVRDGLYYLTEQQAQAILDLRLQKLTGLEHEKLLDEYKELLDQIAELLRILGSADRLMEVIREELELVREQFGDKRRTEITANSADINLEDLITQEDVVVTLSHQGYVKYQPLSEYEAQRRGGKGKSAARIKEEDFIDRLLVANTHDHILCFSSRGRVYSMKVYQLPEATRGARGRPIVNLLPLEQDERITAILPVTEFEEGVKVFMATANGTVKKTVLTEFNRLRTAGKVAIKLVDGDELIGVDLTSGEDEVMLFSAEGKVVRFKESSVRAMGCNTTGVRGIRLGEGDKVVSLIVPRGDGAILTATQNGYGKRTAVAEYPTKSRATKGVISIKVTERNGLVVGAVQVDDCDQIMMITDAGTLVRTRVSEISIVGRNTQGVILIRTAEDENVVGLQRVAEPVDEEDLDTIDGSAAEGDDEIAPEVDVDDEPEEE", "assay": "Recombinant DNA gyrase supercoiling assay ± CTX-M-15", "type": "biochemical, E. coli"}, "[4]": {"system": "E. faecalis ATCC29212 and GW01", "assay": "Antibacterial activity against E. faecalis strains without β-lactamase", "type": "cell-based", "conditions": "two strains that did not express β-lactamase"}, "E. coli CFT073 pEMP": {"system": "E. coli CFT073 pEMP", "assay": "Bactericidal activity (survival by CFU counts), CFT073 pEMP", "type": "cell-based", "conditions": "78 nM, CFU counts over time", "description": "Finally, the ability of prodrug 35 to kill bacteria rather than arrest growth was evaluated. […]\ndetermined as the lowest concentration of antibiotic that inhibited visible bacterial growth.\nOD595 measurements were recorded on a BioRad 1Mark Microplate Reader. Measurements were background corrected against the no-inoculum control and normalized to the no-drug […]\nDetermination of bactericidal activity\nStationary-phase bacteria were inoculated into 3 ml MHB containing no antibiotic, […]\nsubsequently incubated at 37 °C with shaking (180 r.p.m.) and bacterial viability determined […]\nbeen shown previously to be bactericidal.\nRecombinant β-lactamase assay\nEach compound was incubated for 1 hour at room temperature in 100 mM NaPO4 (pH 7) ± 0.5 M NaOH. The wavelength at which the difference between un-hydrolysed and hydrolysed compound was the greatest was selected (typically 263 nm) and a compound concentration vs. absorbance standard curve was generated. Compounds, typically 250 μM in assay buffer (100 mM NaPO4 (pH 7)), were dispensed into a Corning 96-well UV transparent flat bottom plate. Recombinant Amp-C in assay buffer was added immediately before incubatio n in the microplate reader at 37 °C. UV absorbance was measured every 20 s for 1 h on a BMG LABTECH SPECTROstarNano. Kinetic parameters were determined by half -life analysis.\nNMR β-lactamase hydrolysis assay […]"}, "E. coli CFT073 pCTX-M-1": {"system": "E. coli CFT073 pCTX-M-1", "assay": "Bactericidal activity (survival by CFU counts), CFT073 pCTX-M-1", "type": "cell-based", "conditions": "78 nM"}, "CFT073 pNDM (NDM-1)": {"system": "CFT073 pNDM (NDM-1)", "assay": "microbe, parasite or virus in culture", "type": "cell-based, E. coli", "conditions": "Escherichia coli, read-out: MIC value pNDM"}, "[5]": {"system": "CFT073 + pSU18 + CTX-M-1 (pCTX)", "assay": "microbe, parasite or virus in culture", "type": "cell-based, E. coli"}, "CFT073 E. coli cells WT": {"system": "CFT073 E. coli cells WT", "assay": "MIC, E. coli CFT073 WT", "type": "cell-based", "conditions": "Escherichia coli"}, "[6]": {"system": "Ec19 (CTX-M-15, ciprofloxacin resistant)", "assay": "microbe, parasite or virus in culture", "type": "cell-based, E. coli"}, "[7]": {"system": "Ec11 (CTX-M-15, ciprofloxacin sensitive)", "assay": "microbe, parasite or virus in culture", "type": "cell-based, E. coli"}, "[8]": {"system": "Ec13 (CTX-M-15, ciprofloxacin resistant)", "assay": "microbe, parasite or virus in culture", "type": "cell-based, E. coli"}}, "note": "“And” between values parts separate entries of the source, which are not always exact repeats. Equal entries are not always repeated. Where two headings read alike, the source gives them in different places."}
{"smiles": "CC(=O)N[C@@H]1C(=O)N2C(C(=O)O)=C(COC(=O)c3cn(C4CC4)c4cc(N5CCNCC5)c(F)cc4c3=O)CS[C@H]12", "note": "[compound 35, (6R,7R)-7-Acetamido-3-(((1-cyclopropyl-6-fluoro-4-oxo-7-(piperazin-1-yl)-1,4-dihydroquinoline-3-carbonyl)oxy)methyl)-8-oxo-5-thia-1-azabicyclo[4.2.0]oct-2-ene-2-carboxylic Acid]", "values": [{"measurement": "MIC", "setting": "[1]; Escherichia coli, read-out: MIC value Ec12", "value": "> 5", "unit": "µM"}, {"measurement": "arrest in bacterial growth (in words)", "setting": "[1]; strain EC12, ciprofloxacin resistant", "value": "no arrest in bacterial growth"}, {"measurement": "antibacterial activity (in words)", "setting": "[2]", "value": "confirmed"}, {"measurement": "MIC", "setting": "[3]; Escherichia coli, read-out: MIC value Ec17", "value": 2.5, "unit": "µM"}, {"measurement": "antibacterial activity (in words)", "setting": "[3]; strain EC17, ciprofloxacin sensitive", "value": "confirmed"}, {"measurement": "MIC", "setting": "CFT073 pKPC (KPC-3)", "value": "0.04 µg/mL and 0.063 µM"}, {"measurement": "decrease in activity (MIC) compared to ciprofloxacin 31", "setting": "CFT073 + pSU18 (pEMP); CFT073 WT and pEMP, absence of β-lactamase", "value": 10, "unit": "fold"}, {"measurement": "MIC assay in the presence of human serum", "setting": "CFT073 + pSU18 (pEMP); CFT073 pEMP, 10 % normal human serum", "value": "equivalent to those obtained in the absence of serum"}, {"measurement": "MIC", "setting": "CFT073 + pSU18 (pEMP); Escherichia coli, read-out: MIC value pEMP, CFT073 empty plasmid", "value": 0.312, "unit": "µM"}, {"measurement": "inhibition of DNA gyrase", "setting": "recombinant DNA gyrase; absence of CTX-M-15", "value": "not observed"}, {"measurement": "reduction of DNA gyrase activity", "setting": "recombinant DNA gyrase; presence of CTX-M-15, 1 μM compound", "value": "> 50", "unit": "%"}, {"measurement": "activity against E. faecalis compared to ciprofloxacin", "setting": "[4]", "value": "reduced activity compared to ciprofloxacin"}, {"measurement": "growth of CFT073 expressing empty plasmid", "setting": "E. coli CFT073 pEMP", "value": "growth comparable to no treatment controls"}, {"measurement": "killing activity in E. coli expressing CTX-M-1", "setting": "E. coli CFT073 pCTX-M-1; CFU counts over time", "value": "almost identical to free ciprofloxacin"}, {"measurement": "greater killing of E. coli expressing CTX-M-1 compared with bacteria not expressing the enzyme", "setting": "E. coli CFT073 pCTX-M-1; 6 h incubation, CFU counts", "value": "> 100", "unit": "fold"}, {"measurement": "MIC", "setting": "CFT073 pNDM (NDM-1)", "value": "0.04 µg/mL and 0.063 µM"}, {"measurement": "MIC assay in the presence of human serum", "setting": "[5]; CFT073 pCTX-M-1, 10 % normal human serum", "value": "equivalent to those obtained in the absence of serum"}, {"measurement": "MIC higher than ciprofloxacin 31", "setting": "[5]; CFT073 strains expressing CTX-M-1, NDM1 or KPC", "value": 2, "unit": "fold"}, {"measurement": "MIC", "setting": "[5]; Escherichia coli, read-out: MIC value pCTX, CFT073 pCTX", "value": "0.04 µg/mL and 0.063 µM"}, {"measurement": "MIC", "setting": "CFT073 E. coli cells WT; read-out: MIC value WT, CFT073 WT", "value": 0.312, "unit": "µM"}, {"measurement": "MIC", "setting": "CFT073 E. coli cells WT; CFT073 WT, read-out: MIC value WT", "value": "0.18 µg/mL and 0.31 µM"}, {"measurement": "MIC", "setting": "[6]; Escherichia coli, read-out: MIC value Ec19", "value": "> 5", "unit": "µM"}, {"measurement": "arrest in bacterial growth (in words)", "setting": "[6]; strain EC19, ciprofloxacin resistant", "value": "no arrest in bacterial growth"}, {"measurement": "MIC", "setting": "[7]; Escherichia coli, read-out: MIC value Ec11", "value": 0.63, "unit": "µM"}, {"measurement": "antibacterial activity (in words)", "setting": "[7]; strain EC11, ciprofloxacin sensitive", "value": "confirmed"}, {"measurement": "MIC", "setting": "[8]; Escherichia coli, read-out: MIC value Ec13", "value": "> 5", "unit": "µM"}, {"measurement": "arrest in bacterial growth (in words)", "setting": "[8]; strain EC13, ciprofloxacin resistant", "value": "no arrest in bacterial growth"}]}
